Test results from ChEMBL document CHEMBL1150099, “An improved source of bryostatin 10, Bugula neritina from the Gulf of Aomori, Japan” (1995).
Values after ≈ are worked out from the molar mass of the structure shown. Active and inactive are the calls of the source. The rule behind the calls is not given here.

Assays:
P388 = assay: Cytotoxicity against mouse P388 cells; assay type: functional; details: read-out: ED50 (the source's name)
Sperm = assay: Inhibition of movement of sea urchin sperm at 1 ug/ml; assay type: functional, cell-based; details: Echinoidea
Echinoidea = assay: Inhibition of fertilization of sea urchin egg at 1 ug/ml; assay type: functional
[1] = Inhibition of fertilized sea urchin egg cell division; assay type: functional; details: Echinoidea, read-out: ED50 (the source's name)
[2] = Increase in ACTH-induced steroidogenesis in bovine adrenocortical cells measured per 10^5 cells; assay type: functional, Bos taurus

| SMILES | EC50 (P388) | Activity (Sperm) | inhibition (Echinoidea) | EC50 [1] | Activity [2] |
| --- | --- | --- | --- | --- | --- |
| CCC(=O)O[C@H](C)[C@H]1C[C@@H]2C/C(=C/C(=O)OC)C[C@@](O)(O2)C(C)(C)/C=C/[C@H]2C/C(=C\C(=O)OC)C[C@@H](C[C@]3(O)O[C@H](C[C@@H](O)CC(=O)O1)C[C@H](OC(=O)C(C)(C)C)C3(C)C)O2 | 0.52 µg/mL (≈ 0.601 µM) | Active | 80% | – | – |
| COC(=O)/C=C1/C[C@H]2C[C@]3(O)O[C@H](C[C@@H](O)CC(=O)O[C@@H]([C@@H](C)O)C[C@@H]4C/C(=C\C(=O)OC)C[C@@](O)(O4)C(C)(C)/C=C/[C@@H](C1)O2)C[C@H](OC(=O)C(C)(C)C)C3(C)C [BRYOSTATIN 10] | 0.0018 µg/mL (≈ 0.00223 µM) | – | – | 0.16 µg/mL (≈ 0.198 µM) | 1141 pmol/h |
| CCCC(=O)O[C@H](C)[C@H]1C[C@@H]2C/C(=C/C(=O)OC)C[C@@](O)(O2)C(C)(C)/C=C/[C@H]2C/C(=C\C(=O)OC)C[C@@H](C[C@]3(O)O[C@H](C[C@@H](O)CC(=O)O1)C[C@H](OC(=O)C(C)(C)C)C3(C)C)O2 | 0.32 µg/mL (≈ 0.364 µM) | – | 80% | – | – |
| COC(=O)/C=C1\C=C2O[C@@H](C1)C[C@H]([C@@H](C)O)OC(=O)C[C@H](O)C[C@@H]1C[C@H](OC(=O)C(C)(C)C)C(C)(C)[C@](O)(C[C@@H]3C/C(=C/C(=O)OC)C[C@H](/C=C/C2(C)C)O3)O1 [BRYOSTATIN 17] | – | – | 100% | 0.3 µg/mL (≈ 0.379 µM) | – |
| COC(=O)/C=C1/C[C@H]2C[C@]3(O)O[C@H](C[C@@H](O)CC(=O)O[C@@H]([C@@H](C)OC(C)=O)C[C@@H]4C/C(=C/C(=O)OC)C[C@@](O)(O4)C(C)(C)/C=C/[C@@H](C1)O2)C[C@H](OC(=O)C(C)(C)C)C3(C)C | 0.44 µg/mL (≈ 0.517 µM) | – | 80% | – | – |
